Measurements reported in patent US12194082B2, “Compositions and methods for treatment of homocystinuria” (THE REGENTS OF THE UNIVERSITY OF COLORADO, priority 2016, dated 2025).
Several values for one entry are separate records, joined by “and”; a condition that tells them apart may be missing. Equal entries are not always repeated.

Columns and labels:
[1] = Pharmacokinetics of 20NHS PEG-htCBS C15S in monkeys
Description: The pharmacokinetic (PK) parameters were calculated using a non-compartmental curve stripping model which resolves a curve into a series of exponential terms corresponding to the absorption, distribution and elimination phases occurring during the time course of the enzyme in the blood. The curve stripping approach assumes that the disposition phases of the drug follow apparent first-order kinetics, which is evidenced by the linearity in the terminal portion of a semi-log plot. These calculations were made using a modeling program called PK Solutions 2.0 (Summit Solutions, Montrose, CO) using the mean plasma enzyme activity for each route of administration. The bioavailability was calculated by dividing the area under the curve (AUC) for the SC or IP route by the AUC observed after IV administration.
For the single dose PK study, three experimental groups of 4 (n=2M+2F) monkeys each were used to conduct the experiments. The first group received 2 mg/kg 20NHS PEG-htCBS C15S via IV injection. Blood was collected at 0, 0.083, 0.16, 0.25, 0.5, 1, 2, 4, 8, 24, 72, 120, and 192 hours post IV injection. The second and third groups received either 2 mg/kg or 6 mg/kg 20NHS PEG-htCBS C15S via SC injection. Blood was collected at 0, 1, 2, 4, 8, 24, 48, 72, 96, 120, 192, 240, and 336 hours post SC injection.

KO mice = experiment: Survival of KO mice treated with PEGylated htCBS C15S conjugates; type: in vivo, mouse
Description: A Kaplan Meyer survival curve was plotted of KO mice injected three times weekly with 7.5 mg/kg htCBS C15S PEGylated with ME-200MA0B (n=24), ME-400MA (n=31=13F+18M), or ME-200GS (n=28=14F+14M), and a group of KO mice (n=44) that was injected with PBS as a control. Lactating mothers were maintained on betaine water, and after weaning, the pups (day 21) were put on regular water with no betaine. The ability of the injected enzyme to rescue KO pups was tested.
After an initial 35 days (5 weeks) long treatment to prevent neonatal lethality of KO mice, the KO mice treated with 20NHS PEG-htCBS C15S were divided into two groups. One group (5 W) stopped receiving any treatment apart from the initial one, while the other group (CONT) continued with the same regimen for up to 120 days of age (7.5 mg/kg, SC, 3× a week).

[2] = CBS enzyme activity assay, specific activity of pure enzyme; type: biochemical; settings: lots used in osmotic pumps
Description: CBS activity was determined by a radioisotope assay with C^14-labeled serine as a substrate. Ten μl (total 490 ng) of pure htCBS in dilution buffer (0.1 M Tris-HCl pH=8.6, 1 mM DTT, 10 μM PLP, 0.5 mg/ml BSA) or 10 μl of plasma were added to 85 μl of reaction mixture containing 0.1 M Tris-HCl pH=8.6, 10 mM L-serine, 0.5 mM PLP, 0.5 mg/ml BSA and 0.3 μCi (for pure enzyme) or 0.45 μCi (for plasma) of L-[C^14(U)]-Serine. Samples were incubated for 5 min at 37° C. and reaction was initiated by addition of 5 μl of 0.2 M Hcy (10 mM final concentration). Following 30 min of incubation at 37° C., a 20 μl aliquot of the assay mixture was applied onto a grade 3 CHR Whatman (NJ, USA) paper. Assay initiation and sampling of the resulting mixture were staggered so that each reaction time was 30 minutes. Descending paper chromatography was used to isolate the radioactive product (Cth) from a labeled substrate (Ser). The C^14-cystathionine formed in the reaction was separated from C^14-serine by an overnight descending paper chromatography in 2-propanol/formic acid/H2O (75:5.7:18.9 v/v). Radioactivity in the area of the marker cystathionine (detected by staining the marker lane with ninhydrin) was determined by cutting the chromatogram into strips that were submerged in 5 ml of Opti-fluor scintillation cocktail (PerkinElmer, MA, USA) and counted in a Beckman LS-3801 scintillation counter. An enzyme-free sample was used as a blank to monitor the background radioactivity that was then subtracted from each sample. For pure enzyme, specific activity values are expressed as enzyme units (the amount of enzyme that produces 1 μmol of cystathionine/hour) per mg of CBS, and for plasma samples as units per μl plasma.

Hcy, Cth, Cys, Met = experiment: Diet study (regular vs Met-restricted diet) in I278T mice: plasma metabolites; type: in vivo
Description: A diet study was performed in I278T mice and analyze them. Plasma metabolites of 10 weeks old mice: +/− I278T (control), −/− I278T (negative control), and −/− treated with 20NHS PEG-[…] (OT-58) mice. Each group was further divided into subgroups: one on a regular diet (8.2 g/kg Met TD.01084 diet+zinc water) (REG) and one on a methionine-restricted diet (0.5 g/kg Met TD.110591 diet+betaine water) (MRD). Treatment was begun at W5 of age.

[3] = system: homocysteine, cystathionine, cysteine, lanthionine, and homolanthionine; experiment: Pharmacodynamics (plasma sulfur amino acid metabolites) in monkeys; type: in vivo, cynomolgus monkeys (Macaca fascicularis); set-up: Cystathionine plasma level / Lanthionine plasma level / Homolanthionine plasma level: unit not given here; settings: for Homolanthionine plasma level / Lanthionine plasma level / Cystathionine plasma level: mean ± SEM
Description: Plasma metabolites homocysteine, cystathionine and cysteine were determined by stable-isotope-dilution liquid chromatography mass spectrometry as previously described in (Allen et al., 1993, Metabolism, 42: 1448-1460). Measurements of total non-protein bound homocysteine and other aminothiols as well as of amino acids in tissue were performed as described in (Maclean et al., 2010b. Mol. Genet. Metab. 101, 153-162). Metabolites were determined by stable-isotope-dilution liquid chromatography mass spectrometry.

Hcy, Cth, Cys, and Met = experiment: Plasma metabolites in I278T mice of the DEXA study; type: in vivo; settings: continuous long-term administration
Description: Plasma metabolites were determined in the same mice/groups as described above and compared to each other. The left bar represents the level of metabolite for +/− healthy controls, and the middle bar represents the level of metabolite for −/− affected controls. The levels of each metabolite in 20NHS PEG-htCBS C15S-treated mice is represented by the right bar.

I278T mice = experiment: DEXA bone mineralization and body composition in I278T mice; type: in vivo, mouse; settings: 7.5 mg/kg SC 3x/week from 6 to 13 months of age
Description: A PIXImusII DEXA scanner (GE Lunar Medical Systems) specifically designed for scanning small animals such as mice was used for DEXA analysis. This machine enabled quick and efficient determination of the body composition (lean, fat mass, and bone density) of a mouse before terminal tissue extraction procedures. Mice were fasted for 4 hours prior to the DEXA measurement to remove food from the gastro-intestinal tract. Mice were then anesthetized using IP bolus injection of 60 mg/kg ketamine and 15 mg/kg xylazine and placed on a tray in the DEXA machine. After the measurement was done (3˜5 minutes), the mice were removed from the DEXA machine and used in terminal procedures, such as tissue extractions.
The bone mineral density (BMD) and bone mineral content (BMC) were analyzed by DEXA for three groups of I278T mice: +/− healthy heterozygous controls (n=10M+11F), −/− affected homozygous I278T controls (n=6M+8F), and 20NHS PEG-htCBS C15S-treated I278T mice (n=6M+6F). The 20NHS PEG-htCBS C15S (C15S/ME-200GS)-treated I278T mice were administered 7.5 mg/kg subcutaneously (SC) 3 times per week from the age of 6 months up to the age of 13 months. FIG. 17A, FIG. 17B, FIG. 17C, FIG. 17D, and FIG. 17E are graphs comparing BMD (g/cm^2), BMC (g), total mass (g), lean mass (g), and fat content (%), respectively, among the three groups of mice. […]

## 20NHS PEG-htCBS C15S: htCBS C15S PEGylated with ME-200GS PEG (20 kDa linear NHS ester-activated PEG)
[1]; 2 mg/kg IV
  AUC(0-t) (obs area): 5942 ± 156 mU-h/μl
  Bioavailability: 100%
  CL (obs area): 22.4 ± 1.27 mL/day/kg
  MRT (area): 89.9 ± 2.4 h
  cp0: 96.5 ± 2.8 mU/μl
[1]; 2 mg/kg SC
  AUC(0-t) (obs area): 5263 ± 299 mU-h/μl
  Bioavailability: 80.8 ± 4.7%
  MRT (area): 116.3 ± 2.4 h
  cmax: 40.8 mU/μl and 40.8 ± 2.0 mU/μl
  tmax (obs): 26.2 ± 2.6 h
[1]; 6 mg/kg SC
  AUC(0-t) (obs area): 15743 ± 629 mU-h/μl
  Bioavailability: 79.9 ± 3.5%
  MRT (area): 116.2 ± 5.0 h
  cmax: 114.9 mU/μl and 114.9 ± 7.5 mU/μl
  tmax (obs): 32.4 ± 2.4 h
[1]; 6 SC doses every 72 hours
  CBS activity after repeated administrations: no attenuation of CBS activity
[1]; Monkey/both sexes, SC
  tmax: 29 h
[1]; monkeys, both sexes, across SC doses, listed as OT-58
  bioavailability (F %) after SC administration: 81%
KO mice; 7.5 mg/kg three times weekly, day 21
  survival: about 97%
KO mice; continuous 7.5 mg/kg SC 3x a week up to 120 days of age
  survival of all mice: at least 119 days
KO mice; treatment terminated after initial 35 days
  survival at 119 days of age: about 85%
[2]
  specific activity of administered enzyme: 673.9 ± 13.2 U/mg
[2]; listed as ME-200GS PEGylated htCBS C15S
  specific activity of administered enzyme: 623.2 ± 16.4 U/mg
Hcy, Cth, Cys, Met; −/− I278T on MRD diet
  plasma Cth: 10 µM
Hcy, Cth, Cys, Met; −/− I278T on MRD diet (41 μM untreated)
  plasma Hcy: 2 µM
Hcy, Cth, Cys, Met; −/− I278T on REG diet
  plasma Cth: 113 µM
  plasma Met: 66 µM
Hcy, Cth, Cys, Met; −/− I278T on REG diet (356 μM untreated)
  plasma Hcy: 50 µM
Hcy, Cth, Cys, Met; −/− I278T on REG diet (356 μM untreated), listed as OT-58
  plasma Hcy: 51 µM
Hcy, Cth, Cys, Met; −/− I278T, MRD diet and/or treatment
  plasma Cys: normalize plasma levels of Cys
[3]; 1 mg/kg SC every 72 h, 176 h
  Homolanthionine plasma level: 64 ± 7
  Lanthionine plasma level: 46 ± 9
[3]; 1 mg/kg SC every 72 h, 176 h after first injection
  Cystathionine plasma level: 4010 ± 236
[3]; 1 mg/kg SC every 72 h, 392 h
  Cystathionine plasma level: 4272 ± 333
  Homolanthionine plasma level: 72 ± 5
  Lanthionine plasma level: 69 ± 7
[3]; 3 mg/kg SC every 72 h, 176 h
  Cystathionine plasma level: 5629 ± 284
  Homolanthionine plasma level: 64 ± 4
  Lanthionine plasma level: 103 ± 7
[3]; 3 mg/kg SC every 72 h, 392 h
  Cystathionine plasma level: 5893 ± 390
  Homolanthionine plasma level: 60 ± 10
  Lanthionine plasma level: 109 ± 9
[3]; 10 mg/kg SC every 72 h, 176 h
  Cystathionine plasma level: 7098 ± 12
  Homolanthionine plasma level: 50 ± 3
  Lanthionine plasma level: 281 ± 43
[3]; 10 mg/kg SC every 72 h, 392 h
  Cystathionine plasma level: 9318 ± 288
  Homolanthionine plasma level: 53 ± 4
  Lanthionine plasma level: 353 ± 38
[3]; 8 hours after IV, 8 and 48 hours after SC administration
  plasma Cth: significant spikes
[3]; single IV or SC dose, healthy wild-type monkeys
  plasma levels of Hcy and Cys: No significant changes
Hcy, Cth, Cys, and Met
  Hcy, Cth, Cys and Met plasma levels vs untreated −/− mice: significantly improved
I278T mice
  bone mineralization (BMD) vs healthy heterozygous controls: indistinguishable
  osteoporosis and body composition (DEXA): prevented profound osteoporosis and improved body composition
